Each block holds one compound with its values, some of them ahead of it.
Columns and labels:
Hepatitis C virus = assay: Antiviral activity against HCV genotype 3a in RLuc cells assessed as reduction in viral replication by luciferase reporter gene assay; assay type: functional, organism-based, Hepacivirus hominis, subtype 3a
[1] = Inhibition of HCV genotype 3a NS3/4a protease by enzymatic assay; set-up: species or system Hepatitis C virus subtype 3a
[2] = Drug metabolism in human liver microsomes assessed as metabolite formation in presence of glutathione; assay type: ADME, Microsome
[3] = Half life in rat; assay type: ADME; conditions: in vivo
[4] = Lipophilicity, log D of compound; assay type: physicochemical; conditions: octanol/water
[5] = Volume of distribution at steady state in rat; assay type: ADME; conditions: in vivo, read-out: Vdss
[6] = Drug metabolism in human liver microsomes assessed as hydroxylated metabolite formation; assay type: ADME, Microsome
[7] = Drug concentration in rat liver after 6 hrs; assay type: ADME, tissue-based; conditions: read-out: Drug uptake
Hepacivirus hominis = assay: Binding affinity to HCV NS3/4a protease assessed as compound-protein adduct formation per mg protein using radiolabelled compound
[8] = MRT in rat; assay type: ADME; conditions: in vivo
[9] = Oral bioavailability in rat; assay type: ADME, organism-based; conditions: in vivo
[10] = Clearance in rat; assay type: ADME; conditions: in vivo

EC50 (Hepatitis C virus; Hepatitis C virus, subtype 3a): 1110 nM
Ki [1]: 0.87 nM
SMILES: COc1ccc2nc3c(nc2c1)O[C@H]1CN(C(=O)[C@H](C(C)(C)C)NC(=O)O[C@@H]2C[C@H]2CCCCC3)[C@H](C(=O)N[C@]2(C(=O)NS(=O)(=O)C3(C)CC3)C[C@H]2C(F)F)[C@@H]1Cc1ccccc1

EC50 (Hepatitis C virus; Hepatitis C virus, subtype 3a): 41 nM
Ki [1]: 0.094 nM
Drug metabolism [2]: Metabolite_Detected
SMILES: C=C[C@@H]1C[C@]1(NC(=O)[C@@H]1[C@H](C)[C@@H]2CN1C(=O)[C@H](C(C)(C)C)NC(=O)O[C@@H]1C[C@H]1CCCCCc1nc3ccc(OC)cc3nc1O2)C(=O)NS(=O)(=O)C1CC1

EC50 (Hepatitis C virus; Hepatitis C virus, subtype 3a): 27 nM
half-life [3]: 0.8 h
logD [4]: 3.5
Vd [5]: 1 L/kg
concentration at 6 h [7]: 1.2 µM
Ki [1]: 0.043 nM
bioavailability [9]: 36%
clearance [10]: 2 L/h/kg
SMILES: CC[C@@H]1[C@@H]2CN(C(=O)[C@H](C(C)(C)C)NC(=O)O[C@@H]3C[C@H]3CCCCCc3nc4ccc(OC)cc4nc3O2)[C@@H]1C(=O)N[C@]1(C(=O)NS(=O)(=O)C2CC2)C[C@H]1C(F)F

PB (Hepacivirus hominis): 29 pmol/mg
SMILES: CC[C@@H]1C[C@]1(NC(=O)[C@@H]1C[C@@H]2CN1C(=O)[C@H](C(C)(C)C)NC(=O)OCC(C)(C)CCCCc1cccc3c1CN(C3)C(=O)O2)C(=O)NS(=O)(=O)C1CC1

PB (Hepacivirus hominis): 96 pmol/mg
SMILES: COc1ccc2c(O[C@H]3CCN4C(=O)N(C)CCCC/C=C\[C@@H]5C[C@@]5(C(=O)NS(=O)(=O)C5(C)CC5)NC(=O)[C@@H]4C3)cc(-c3nc(C(F)(F)F)cs3)nc2c1C

PB (Hepacivirus hominis): 295 pmol/mg
SMILES: Cc1cnc(C(=O)N[C@H]2CCCCC/C=C\[C@@H]3C[C@@]3(C(=O)NS(=O)(=O)C3CC3)NC(=O)[C@@H]3C[C@@H](Oc4nc5ccccc5c5ccccc45)CN3C2=O)cn1

PB (Hepacivirus hominis): 22 pmol/mg
SMILES: COc1ccc2c(O[C@@H]3C[C@H]4C(=O)N[C@]5(C(=O)NS(=O)(=O)C6CC6)C[C@H]5/C=C\CCCCN(C)C(=O)[C@@H]4C3)cc(-c3nc(C(C)C)cs3)nc2c1C

EC50 (Hepatitis C virus; Hepatitis C virus, subtype 3a): 272 nM
half-life [3]: 5 h
logD [4]: 4.6
Vd [5]: 3.1 L/kg
concentration at 6 h [7]: 30.2 µM
Ki [1]: 0.563 nM
bioavailability [9]: 100%
clearance [10]: 0.67 L/h/kg
SMILES: CC[C@@H]1[C@@H]2CN(C(=O)[C@H](C(C)(C)C)NC(=O)O[C@@H]3C[C@H]3CCCCCc3nc4ccc(OC)cc4nc3O2)[C@@H]1C(=O)N[C@]1(C(=O)NS(=O)(=O)C2CC2)C[C@H]1CC

PB (Hepacivirus hominis): 202 pmol/mg
SMILES: CC(C)(C)OC(=O)N[C@H]1CCCCC/C=C\[C@@H]2C[C@@]2(C(=O)NS(=O)(=O)C2CC2)NC(=O)[C@@H]2C[C@@H](OC(=O)N3Cc4cccc(F)c4C3)CN2C1=O

PB (Hepacivirus hominis): 24 pmol/mg
SMILES: C=C[C@@H]1C[C@]1(NC(=O)[C@@H]1C[C@@H]2CN1C(=O)[C@H](C(C)(C)C)NC(=O)O[C@@H]1C[C@H]1CCCCCc1nc3ccc(OC)cc3nc1O2)C(=O)NS(=O)(=O)C1CC1

EC50 (Hepatitis C virus; Hepatitis C virus, subtype 3a): 20 nM
half-life [3]: 2.2 h
logD [4]: 4.1
Vd [5]: 1.9 L/kg
concentration at 6 h [7]: 20.9 µM
Ki [1]: 0.081 nM
PB (Hepacivirus hominis): 117 pmol/mg
clearance [10]: 0.88 L/h/kg
SMILES: C=C[C@@H]1C[C@]1(NC(=O)[C@@H]1[C@H](CC)[C@@H]2CN1C(=O)[C@H](C(C)(C)C)NC(=O)O[C@@H]1C[C@H]1CCCCCc1nc3ccc(OC)cc3nc1O2)C(=O)NS(=O)(=O)C1CC1

Continued, compound first:

SMILES: CC[C@@H]1[C@@H]2CN(C(=O)[C@H](C(C)(C)C)NC(=O)O[C@@H]3C[C@H]3CCCCCc3nc4ccc(OC)cc4nc3O2)[C@@H]1C(=O)N[C@]1(C(=O)NS(=O)(=O)C2(C)CC2)C[C@H]1C
EC50 (Hepatitis C virus; Hepatitis C virus, subtype 3a): 109 nM
Ki [1]: 0.838 nM

SMILES: CC[C@@H]1[C@@H]2CN(C(=O)[C@H](C(C)(C)C)NC(=O)O[C@@H]3C[C@H]3CCCCCc3nc4ccc(OC)cc4nc3O2)[C@@H]1C(=O)N[C@]1(C(=O)NS(=O)(=O)C2(C)CC2)C[C@H]1C(F)F
EC50 (Hepatitis C virus; Hepatitis C virus, subtype 3a): 23 nM
half-life [3]: 1.4 h
logD [4]: 3.8
Vd [5]: 1.7 L/kg
Drug metabolism [6]: Metabolite_Detected
concentration at 6 h [7]: 14 µM
Ki [1]: 0.067 nM
PB (Hepacivirus hominis): 10 pmol/mg
MRT [8]: 1.4 h
bioavailability [9]: 31%
clearance [10]: 1.3 L/h/kg

SMILES: CC[C@@H]1[C@@H]2CN(C(=O)[C@H](C(C)(C)C)NC(=O)O[C@@H]3C[C@H]3CCCC3CC3c3nc4ccc(OC)cc4nc3O2)[C@@H]1C(=O)N[C@]1(C(=O)NS(=O)(=O)C2(C)CC2)C[C@H]1C(F)F (stereo in doubt; 46)
EC50 (Hepatitis C virus): 829 nM
Ki [1]: 9.4 nM

SMILES: CC[C@@H]1[C@@H]2CN(C(=O)[C@H](C(C)(C)C)NC(=O)O[C@@H]3C[C@H]3CCCC3CC3c3nc4ccc(OC)cc4nc3O2)[C@@H]1C(=O)N[C@]1(C(=O)NS(=O)(=O)C2(C)CC2)C[C@H]1C(F)F (stereo in doubt; 45)
EC50 (Hepatitis C virus): 128 nM
Ki [1]: 1.7 nM

SMILES: C=C[C@@H]1C[C@]1(NC(=O)[C@@H]1C[C@@H](Oc2cc(-c3csc(NC(=O)C(C)C)n3)nc3c(Br)c(OC)ccc23)CN1C(=O)[C@@H](NC(=O)OC1CCCC1)C(C)(C)C)C(=O)O
PB (Hepacivirus hominis): 15 pmol/mg

SMILES: C=C[C@@H]1C[C@]1(NC(=O)[C@@H]1C[C@@H](Oc2ncc(OC)c3ccc(Cl)cc23)CN1C(=O)[C@@H](NC(=O)OC(C)(C)C)C(C)(C)C)C(=O)NS(=O)(=O)C1CC1
PB (Hepacivirus hominis): 114 pmol/mg

SMILES: COc1ccc2nc3c(nc2c1)O[C@@H]1C[C@@H](C(=O)N[C@]2(C(=O)NS(=O)(=O)C4(C)CC4)C[C@H]2C(F)F)N(C1)C(=O)[C@H](C(C)(C)C)NC(=O)O[C@@H]1C[C@H]1CCCCC3
EC50 (Hepatitis C virus; Hepatitis C virus, subtype 3a): 74 nM
Ki [1]: 0.165 nM

SMILES: COc1ccc2nc3c(nc2c1)O[C@H]1CN(C(=O)[C@H](C(C)(C)C)NC(=O)O[C@@H]2C[C@H]2CCCCC3)[C@H](C(=O)N[C@]2(C(=O)NS(=O)(=O)C3(C)CC3)C[C@H]2C(F)F)[C@@H]1C
EC50 (Hepatitis C virus; Hepatitis C virus, subtype 3a): 20 nM
half-life [3]: 1.3 h
logD [4]: 3.5
Vd [5]: 2.2 L/kg
concentration at 6 h [7]: 3.1 µM
Ki [1]: 0.1 nM
bioavailability [9]: 100%
clearance [10]: 2.1 L/h/kg

SMILES: COc1ccc2nc3c(nc2c1)O[C@H]1CN(C(=O)[C@H](C(C)(C)C)NC(=O)O[C@@H]2C[C@H]2CCCCC3)[C@H](C(=O)N[C@]2(C(=O)NS(=O)(=O)C3CC3)C[C@H]2CC(F)F)[C@@H]1C
EC50 (Hepatitis C virus; Hepatitis C virus, subtype 3a): 375 nM
Ki [1]: 0.92 nM

SMILES: CCC[C@@H]1[C@@H]2CN(C(=O)[C@H](C(C)(C)C)NC(=O)O[C@@H]3C[C@H]3CCCCCc3nc4ccc(OC)cc4nc3O2)[C@@H]1C(=O)N[C@]1(C(=O)NS(=O)(=O)C2(C)CC2)C[C@H]1C(F)F
EC50 (Hepatitis C virus; Hepatitis C virus, subtype 3a): 36 nM
Ki [1]: 0.12 nM

SMILES: CC[C@@H]1[C@@H]2CN(C(=O)[C@H](C(C)(C)C)NC(=O)O[C@@H]3C[C@H]3CC/C=C/C(F)(F)c3nc4ccc(OC)cc4nc3O2)[C@@H]1C(=O)N[C@]1(C(=O)NS(=O)(=O)C2(C)CC2)C[C@H]1C(F)F
EC50 (Hepatitis C virus; Hepatitis C virus, subtype 3a): 5.3 nM
Ki [1]: 0.053 nM

SMILES: CC[C@@H]1[C@@H]2CN(C(=O)[C@H](C(C)(C)C)NC(=O)O[C@@H]3C[C@H]3CCCCC(F)c3nc4ccc(OC)cc4nc3O2)[C@@H]1C(=O)N[C@]1(C(=O)NS(=O)(=O)C2(C)CC2)C[C@H]1C(F)F (stereo partly specified)
EC50 (Hepatitis C virus; Hepatitis C virus, subtype 3a): 35 nM
Ki [1]: 0.13 nM

SMILES: CC[C@@H]1C[C@]1(NC(=O)[C@@H]1C[C@@H](Oc2cc(-c3csc(NC(C)C)n3)nc3c(Cl)c(OCCN4CCOCC4)ccc23)CN1C(=O)[C@@H](NC(=O)O[C@@H]1C[C@@H]2C[C@@H]2C1)C(C)(C)C)C(=O)O
PB (Hepacivirus hominis): 26 pmol/mg

SMILES: CC[C@@H]1C[C@]1(NC(=O)[C@@H]1[C@H](C)[C@@H]2CN1C(=O)[C@H](C(C)(C)C)NC(=O)O[C@@H]1C[C@H]1CCCCCc1nc3ccc(OC)cc3nc1O2)C(=O)NS(=O)(=O)C1CC1
EC50 (Hepatitis C virus; Hepatitis C virus, subtype 3a): 188 nM
Ki [1]: 0.53 nM

SMILES: COc1ccc2nc3c(nc2c1)O[C@H]1CN(C(=O)[C@H](C(C)(C)C)NC(=O)O[C@@H]2C[C@H]2CCCCC3)[C@H](C(=O)N[C@]2(C(=O)NS(=O)(=O)C3(C)CC3)C[C@H]2C(F)F)[C@@H]1C1CC1
EC50 (Hepatitis C virus; Hepatitis C virus, subtype 3a): 1160 nM
Ki [1]: 4.9 nM

SMILES: COc1ccc2nc3c(nc2c1)O[C@H]1CN(C(=O)[C@H](C(C)(C)C)NC(=O)O[C@@H]2C[C@H]2CCCCC3)[C@H](C(=O)N[C@]2(C(=O)NS(=O)(=O)C3CC3)C[C@H]2CCF)[C@@H]1C
EC50 (Hepatitis C virus; Hepatitis C virus, subtype 3a): 419 nM
Ki [1]: 1.3 nM

SMILES: COc1ccc2nc3c(nc2c1)O[C@H]1CN(C(=O)[C@H](C(C)(C)C)NC(=O)O[C@@H]2C[C@H]2CCCCC3)[C@H](C(=O)N[C@]2(C(=O)NS(=O)(=O)C3(C)CC3)C[C@H]2C(F)F)[C@@H]1CC(C)C
EC50 (Hepatitis C virus; Hepatitis C virus, subtype 3a): 1120 nM
Ki [1]: 0.63 nM
